Molecules are shown by their SMILES.

T1 sequence (P37238 with tags, fused parts or gaps limits assumed): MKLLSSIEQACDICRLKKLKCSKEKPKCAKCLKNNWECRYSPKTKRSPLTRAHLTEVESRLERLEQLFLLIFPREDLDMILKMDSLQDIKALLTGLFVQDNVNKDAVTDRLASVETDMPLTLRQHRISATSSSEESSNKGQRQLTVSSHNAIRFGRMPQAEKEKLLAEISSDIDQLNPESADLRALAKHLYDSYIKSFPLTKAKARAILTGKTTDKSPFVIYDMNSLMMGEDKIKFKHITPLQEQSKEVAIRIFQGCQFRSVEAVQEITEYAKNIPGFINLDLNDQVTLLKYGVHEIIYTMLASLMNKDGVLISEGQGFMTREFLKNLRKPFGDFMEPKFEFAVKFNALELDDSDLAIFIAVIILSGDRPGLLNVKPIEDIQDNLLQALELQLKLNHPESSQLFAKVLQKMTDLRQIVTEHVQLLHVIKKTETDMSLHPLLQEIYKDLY

The first assay deals with PPARγ.
Assay: not given
As to conditions: ToxCast 2014 release; ref Filer et al. 2014; read-out: Tox21/NCGC AC50 (panel A); cited from earlier work.
Turning to `CC(C)Oc1cccc(NC(=O)c2ccccc2C(F)(F)F)c1` [Flutolanil], the AC50 is 34.1 µM.

Regarding `CCNc1nc(NC(C)C)nc(SC)n1` [Ametryn], the AC50 was 10.2 µM.

Consider `CC(C)=CC1C(C(=O)OCN2C(=O)C3=C(CCCC3)C2=O)C1(C)C` (stereo not drawn) [Tetramethrin], for which the AC50 was 21.6 µM.

For the molecule `COP(=O)(OC)C(O)C(Cl)(Cl)Cl` (stereo not drawn) [Trichlorfon], the AC50 was 0.05 µM.

In the case of `CCOP(=O)(NC(C)C)Oc1ccc(SC)c(C)c1` (stereo not drawn) [Fenamiphos], the AC50 is 14.7 µM.

For the molecule `CC(C)NC(=O)N1CC(=O)N(c2cc(Cl)cc(Cl)c2)C1=O` [Iprodione], the AC50 is 45.5 µM.

As for `Cc1cc(Cl)ccc1OCC(=O)O` [MCPA], the AC50 was 253 µM.

As for `CCCCC(CC)COC(=O)c1ccccc1C(=O)O` (stereo not drawn) [MEHP], the AC50 was […].

The assay is the same for the next values; noted with them: ToxCast 2014 release; ref Filer et al. 2014; read-out: Tox21/NCGC AC50 (panel B); cited from earlier work.
For the molecule `CS(=O)(=O)c1cc(C(F)(F)F)ccc1C(=O)c1cnoc1C1CC1` [Isoxaflutole], the AC50 was 26.4 µM.

As for `O=C(O)CCCOc1ccc(Cl)cc1Cl` [2,4-DB], the AC50 was 16.7 µM.

For the molecule `CCOc1nc(F)cc2nc(S(=O)(=O)Nc3c(Cl)cccc3Cl)nn12` [Diclosulam], the AC50 is 2.9 µM.

Regarding `CCOP(=O)(NC(C)C)Oc1ccc(SC)c(C)c1` (stereo not drawn) [Fenamiphos], the AC50 is 14.7 µM.

`CC(C)NC(=O)N1CC(=O)N(c2cc(Cl)cc(Cl)c2)C1=O` [Iprodione]: the AC50 was 45.5 µM.

Consider `Cc1cc(Cl)ccc1OCC(=O)O` [MCPA], for which the AC50 was 253 µM.

For a further assay, the system named is Human PPARγ.
Assay: not given
As to conditions: direct binding; ToxCast 2014 release; ref Filer et al. 2014; read-out: NovaScreen AC50 (panel A); cited from earlier work.
Regarding `COc1nn(CSP(=S)(OC)OC)c(=O)s1` [Methidathion], the AC50 is 0.1 µM.

Take `CC(C)Oc1cccc(NC(=O)c2ccccc2C(F)(F)F)c1` [Flutolanil]: the AC50 was 10.3 µM.

In the case of `CCNc1nc(NC(C)C)nc(SC)n1` [Ametryn], the AC50 was 31.8 µM.

As to `CC(C)=CC1C(C(=O)OCN2C(=O)C3=C(CCCC3)C2=O)C1(C)C` (stereo not drawn) [Tetramethrin], the AC50 is 0.3 µM.

On to `Oc1ccccc1-c1ccccc1` [2-Phenylphenol], for which the AC50 was 1.1 µM.

In the case of `CCOP(=O)(NC(C)C)Oc1ccc(SC)c(C)c1` (stereo not drawn) [Fenamiphos], the AC50 is 21.2 µM.

On to `CC(C)NC(=O)N1CC(=O)N(c2cc(Cl)cc(Cl)c2)C1=O` [Iprodione], for which the AC50 was 2.4 µM.

Regarding `Cc1cc(Cl)ccc1OCC(=O)O` [MCPA], the AC50 was 0.1 µM.

Consider `CCCCC(CC)COC(=O)c1ccccc1C(=O)O` (stereo not drawn) [MEHP], for which the AC50 is […].

Still in this assay, the particulars now being: direct binding; ToxCast 2014 release; ref Filer et al. 2014; read-out: NovaScreen AC50 (panel B); cited from earlier work.
As for `COc1nn(CSP(=S)(OC)OC)c(=O)s1` [Methidathion], the AC50 was 0.1 µM.

Turning to `CCOP(=S)(OCC)SCCSCC` [Disulfoton], the AC50 was 1.6 µM.

`CCSC(=O)N1CCCCCC1` [Molinate]: the AC50 was 0.1 µM.

Consider `O=C(O)c1c(Cl)ccc2cc(Cl)cnc12` [Quinclorac], for which the AC50 is 0.0002 µM.

`CCCCOC(=O)C(C)Oc1ccc(Oc2ccc(C(F)(F)F)cn2)cc1` (stereo not drawn) [Fluazifop-butyl]: the AC50 was 0.7 µM.

For `Oc1ccccc1-c1ccccc1` [2-Phenylphenol], the AC50 is 1.1 µM.

Turning to `CCOP(=O)(NC(C)C)Oc1ccc(SC)c(C)c1` (stereo not drawn) [Fenamiphos], the AC50 was 21.2 µM.

With `CC(C)NC(=O)N1CC(=O)N(c2cc(Cl)cc(Cl)c2)C1=O` [Iprodione], the AC50 was 2.4 µM.

Consider `Cc1cc(Cl)ccc1OCC(=O)O` [MCPA], for which the AC50 is 0.1 µM.

`CCCCOC(=O)c1ccccc1C(=O)O` [MBP]: the AC50 is 0.1 µM.

As for `CCNc1nc(Cl)nc(NCC)n1` [Simazine], the AC50 is 1.5 µM.

For the molecule `O=C(O)c1cc(Oc2ccc(C(F)(F)F)cc2Cl)ccc1[N+](=O)[O-]` [Acifluorfen], the AC50 is 13.5 µM.

The assay is the same for the next values; noted with them: read-out: NovaScreen AC50 (panel B); cited from earlier work.
Consider `CCCSP(=O)(OCC)SCCC` [Ethoprop], for which the AC50 was 3.9 µM.

The subject of another assay is PPARγ.
Assay: not given
As to conditions: PPARγ; NA = not active; ref Filer et al. 2014; read-out: ATG Agonist AC50, 2014 Release; cited from earlier work.
Take `C=CCC1=C(C)[C@@H](OC(=O)[C@@H]2[C@@H](C=C(C)C)C2(C)C)CC1=O` [S-Bioallethrin]: the AC50 is 9.2 µM.

Still in this assay, the particulars now being: PPARγ; NA = not active; ref Knudsen et al. 2011; read-out: ATG Agonist AC50, 2011 Release; cited from earlier work.
As to `C=CCC1=C(C)[C@@H](OC(=O)[C@@H]2[C@@H](C=C(C)C)C2(C)C)CC1=O` [S-Bioallethrin], the AC50 was 9.2 µM.

Staying with this assay, now noted: ToxCast 2014 release; ref Filer et al. 2014; read-out: Attagene AC50 (panel A, w/o Z-Score Correction ranking); cited from earlier work.
In the case of `COc1nn(CSP(=S)(OC)OC)c(=O)s1` [Methidathion], the AC50 was 30.6 µM.

With `CC(C)Oc1cccc(NC(=O)c2ccccc2C(F)(F)F)c1` [Flutolanil], the AC50 is 8.5 µM.

Consider `CCNc1nc(NC(C)C)nc(SC)n1` [Ametryn], for which the AC50 is 15.1 µM.

For the molecule `N#Cc1nn(-c2c(Cl)cc(C(F)(F)F)cc2Cl)c(N)c1[S+]([O-])C(F)(F)F` (stereo not drawn) [Fipronil], the AC50 is 39.3 µM.

As for `CC(C)=CC1C(C(=O)OCN2C(=O)C3=C(CCCC3)C2=O)C1(C)C` (stereo not drawn) [Tetramethrin], the AC50 was 0.02 µM.

For the molecule `COP(=O)(OC)C(O)C(Cl)(Cl)Cl` (stereo not drawn) [Trichlorfon], the AC50 was 58.4 µM.

For the molecule `Oc1ccccc1-c1ccccc1` [2-Phenylphenol], the AC50 was 0.1 µM.

Consider `CCOP(=O)(NC(C)C)Oc1ccc(SC)c(C)c1` (stereo not drawn) [Fenamiphos], for which the AC50 is 35.1 µM.

Turning to `CC(C)NC(=O)N1CC(=O)N(c2cc(Cl)cc(Cl)c2)C1=O` [Iprodione], the AC50 was 20.9 µM.

With `Cc1cc(Cl)ccc1OCC(=O)O` [MCPA], the AC50 was 33.8 µM.

As for `CCCCC(CC)COC(=O)c1ccccc1C(=O)O` (stereo not drawn) [MEHP], the AC50 was […].

The assay is the same for the next values; noted with them: ToxCast 2014 release; ref Filer et al. 2014; read-out: Attagene AC50 (panel B, with Z-Score Correction ranking); cited from earlier work.
Regarding `COc1nn(CSP(=S)(OC)OC)c(=O)s1` [Methidathion], the AC50 is 30.6 µM.

Regarding `CCOP(=S)(OCC)SCCSCC` [Disulfoton], the AC50 is 81.8 µM.

In the case of `CCSC(=O)N1CCCCCC1` [Molinate], the AC50 is 41.3 µM.

For the molecule `O=C(O)c1c(Cl)ccc2cc(Cl)cnc12` [Quinclorac], the AC50 is 0.03 µM.

For the molecule `CS(=O)(=O)c1cc(C(F)(F)F)ccc1C(=O)c1cnoc1C1CC1` [Isoxaflutole], the AC50 was 10.4 µM.

As to `CCCCOC(=O)C(C)Oc1ccc(Oc2ccc(C(F)(F)F)cn2)cc1` (stereo not drawn) [Fluazifop-butyl], the AC50 is 2.8 µM.

Regarding `O=C(O)CCCOc1ccc(Cl)cc1Cl` [2,4-DB], the AC50 was 33.4 µM.

Take `CCOc1nc(F)cc2nc(S(=O)(=O)Nc3c(Cl)cccc3Cl)nn12` [Diclosulam]: the AC50 is 26.3 µM.

On to `Oc1ccccc1-c1ccccc1` [2-Phenylphenol], for which the AC50 was 0.1 µM.

`CCOP(=O)(NC(C)C)Oc1ccc(SC)c(C)c1` (stereo not drawn) [Fenamiphos]: the AC50 is 35.1 µM.

Turning to `CC(C)NC(=O)N1CC(=O)N(c2cc(Cl)cc(Cl)c2)C1=O` [Iprodione], the AC50 was 20.9 µM.

As to `Cc1cc(Cl)ccc1OCC(=O)O` [MCPA], the AC50 is 33.8 µM.

Consider `CCCCOC(=O)c1ccccc1C(=O)O` [MBP], for which the AC50 is 18.2 µM.

In the case of `CCNc1nc(Cl)nc(NCC)n1` [Simazine], the AC50 is 116 µM.

As for `O=C(O)c1cc(Oc2ccc(C(F)(F)F)cc2Cl)ccc1[N+](=O)[O-]` [Acifluorfen], the AC50 was 37.1 µM.

Still in this assay, the particulars now being: read-out: Attagene AC50 (panel B, with Z-Score Correction ranking); cited from earlier work.
Turning to `CCCSP(=O)(OCC)SCCC` [Ethoprop], the AC50 was 114 µM.

Another assay concerns the target T1, GAL4-mPPARγ (Mus musculus, UniProt P37238).
T1 construct: expressed in transfected cells; host or cells: COS7
Put plainly: GAL4-mPPARγ activation, transient transfection luciferase reporter in COS7 cells. Particulars: Cos-7 transient transfection, PPARγ activation or antagonism assays (Table 1, Table S6). The assay is classed as cell-based. As for the experimental part: pCMX-Gal4, pCMX-Gal4-mPPARγ, and pCMX-Gal4-hRXRα were previously described ([Grün et al. 2006]). Transient transfections were performed in COS7 cells as described ([Chamorro-García et al. 2012]). Briefly, COS7 cells were seeded at 15,000 cells per well in 96-well tissue culture plates in 10% calf bovine serum. The following day, cells were transfected in Opti-MEM at ~ 90% confluency. One microgram of CMX-GAL4 effector plasmid was co-transfected with 5 μg tk-(MH100)4-luciferase reporter and 5 μg of CMX-β-galactosidase transfection control plasmids in Opti-MEM® using Lipofectamine® 2000 reagent (Invitrogen™ Life Technologies, Carlsbad, CA, USA), following the manufacturer’s recommended protocol. All chemicals were solvated in dimethyl sulfoxide (DMSO). After overnight incubation, the medium was replaced with Dulbecco’s Modified Eagle Medium (DMEM; HyClone, Logan, UT, USA), 10% resin charcoal stripped fetal bovine serum (FBS) plus ligands at concentrations indicated in the figure legends for an additional 24 hr. DMSO concentration was maintained at 0.05% across all chemical treatments. Cells were lysed and assayed for luciferase and β-galactosidase activity as previously described ([Forman et al. 1995]). All transfections were performed in triplicate and reproduced in multiple experiments. Data are reported as fold induction or reduction over vehicle ([…]) controls ± SEM (standard error of the mean) using standard propagation of error ([Bevington and Robinson 2003]). […] The EC50, EC10, IC50, and IC10 values from NCGC and ToxCast™ are reported from gain AC50 and AC10 values in the ToxCast™ 2014 release ([Filer et al. 2014]).
Figure 1 ToxCast™ Chemical Activity on PPARγ. The ability of a graded dose series of ToxCast™ chemicals to (A) activate or (B) antagonize GAL4-mPPARγ was tested in transiently transfected COS7 cells. (A, B) Data points are averages of triplicate transfections (three biological replicates). […] Data are depicted as (A) fold induction or (B) reduction over vehicle (0.05% DMSO) controls ± SEM. (A) ToxCast™ chemicals were tested in 3-fold serial dilutions from 100 μM through 0.137 μM, with the final data point being 0.05% DMSO. Rosiglitazone serves as a positive control activator. (B) ToxCast™ chemicals were tested in 3-fold serial dilutions from 100 μM, in competition with 50 nM rosiglitazone (Rosi). […] (C) EC50, EC10, IC50, and IC10 values calculated from A and B are reported and compared to commercial assays (see Figure S1). Note: ATG, Attagene GAL-PPARγ activation assay; NCGC, GeneBLAzer® agonist (EC values) or antagonist (IC values) assays. Triphenyltin was previously published ([Kanayama et al. 2005]).
Figure 4 ToxPi Chemical Activity on PPARγ and RXRα. The ability of a graded dose series of ToxPi chemicals to activate (A) GAL4-mPPARγ or (B) GAL4-hRXRα was tested in transiently transfected COS7 cells. (A, B) Data points are averages of triplicate transfections (three biological replicates). […] ToxPi chemicals were tested in 3-fold serial dilutions from 100 μM through 0.137 μM, with the final data point being 0.05% DMSO. Data are depicted as fold induction over vehicle (0.05% DMSO) controls ± SEM. (A) Rosiglitazone serves as a positive control activator for GAL4-mPPARγ. (B) LG100268 (2-[1-(3,5,5,8,8-Pentamethyl-5,6,7,8-tetrahydro-2-naphthyl)cyclopropyl]pyridine-5-carboxylic acid) serves as a positive control activator for GAL4-hRXRα. (C) EC50 and EC10 values calculated from A and B are reported and compared to other assays (see Figure S1). ATG, Attagene GAL-PPARγ or GAL-RXRα activation assay; NCGC, GeneBLAzer® GAL-PPARγ or GAL-RXRα activation assays. Triphenyltin was previously published ([Kanayama et al. 2005]).
Background: In a reporter assay the amount or activity of a reporter protein is the signal.
In the case of `C=CCC1=C(C)[C@@H](OC(=O)[C@@H]2[C@@H](C=C(C)C)C2(C)C)CC1=O` [S-Bioallethrin], the “Activation COS7 (result in words), ToxCast PPARγ list” value was “Inactive”.
